Key:
[1] = test system: GIPR; settings: cited from earlier work
Source text: (§1) Several GLP-1R agonists (e.g., exenatide, liraglutide, and semaglutide) are currently used clinically to treat both T2DM and obesity. While they reduce mortality, improve glycemic control, reduce body weight and improve cardiovascular risk factors, the use of higher doses is often limited by adverse effects such as nausea and vomiting. There is therefore the potential to improve upon the current class of GLP-1R agonists. Targeting GIPR to treat T2DM and obesity has a somewhat contradictory history. Unlike GLP-1, pharmacological doses of exogenous GIP were not found to be ins ...

[2] = test system: rodent models; settings: ref [26],[27]; cited from earlier work
Source text: as §1

[3] = molecular target: T1, human glucagon receptor (GCGR) (Homo sapiens, UniProt P47871); experiment: CRE-Luc cAMP-responsive luciferase reporter assay, glucagon receptor; format: cell-based
T1 construct: expressed in transfected cells; host or cells: HEK-293 (transient, with Cre-luc reporter)
Procedure: (§2) The start codon of SYFP2 was replaced by PCR with an XbaI site, and a NotI site was inserted behind the stop codon of SYFP2. The resulting fusion of receptor-SYFP2 was cloned in pcDNA3.
(§3) HEK-293 and Flip-In HEK-293 cells (Invitrogen) were cultured in Dulbecco’s modified Eagle’s media supplemented with 10% foetal calf serum, 100 U/mL penicillin and 100 µg/mL streptomycin. Cells were maintained at 37 °C in a humidified environment containing 5% CO2. HEK-293 cells were transiently transfected using Effectene (Qiagen, Hilden, Germany), following the manufacturer’s protocol. In order to generate stable cell lines Flip-In HEK-293 cells were transfected with the pcDNA5.FRT vector and pOG44 using Effectene. Stable isogenic clones were selected by the addition of hygromycin (100 µg/mL).
(§4) Twenty-four hours after transfection, the cells were seeded into white 96-well plates (Thermo Scientific, Roskilde, Denmark). Twenty-four hours later, the cells were incubated for 3 h in medium containing peptide ligand and then lysed. Luciferase activity was quantified using LucLite reagent (PerkinElmer Life and Analytic Sciences, Wellesley, MA, USA).
(§5) Dose-response curves represent the mean ± S.E.M from at least three independent experiments, each performed in triplicates. […] The dose-response data were fitted to a sigmoidal curve using nonlinear regression, and the EC50 values calculated with the aid of GraphPad 8.0 (GraphPad Dan Diego, CA, USA). The values in Table 1 represent the mean ± S.E.M calculated from the pEC50 (−logEC50) values from at least three independent experiments. Statistical analysis of significance was calculated with GraphPad 8.0 using a two˗tailed, unpaired Student’s t-test.

[4] = molecular target: T2, human GLP-1R (Homo sapiens, UniProt P43220); experiment: CRE-Luc cAMP-responsive luciferase reporter assay, GLP-1 receptor; format: cell-based
T2 construct: expressed in transfected cells; host or cells: HEK-293 (transient, with Cre-luc reporter)
Procedure: as §2
HEK-293 and Flip-In HEK-293 cells (Invitrogen) were cultured in Dulbecco’s modified Eagle’s media supplemented with 10% foetal calf serum, 100 U/mL penicillin and 100 µg/mL streptomycin. Cells were maintained at 37 °C in a humidified environment containing 5% CO2. HEK-293 cells were transiently transfected using Effectene (Qiagen, Hilden, Germany), following the manufacturer’s protocol. […]
Twenty-four hours after transfection, the cells were seeded into white 96-well plates (Thermo Scientific, Roskilde, Denmark). […] Luciferase activity was quantified using LucLite reagent (PerkinElmer Life and Analytic Sciences, Wellesley, MA, USA).
as §5

[5] = molecular target: T3, human GIPR (Homo sapiens, UniProt P48546); experiment: CRE-Luc cAMP-responsive luciferase reporter assay, GIP receptor; format: cell-based
T3 construct: expressed in transfected cells; host or cells: HEK-293 (transient, with Cre-luc reporter)
T3 sequence (P48546 22-466): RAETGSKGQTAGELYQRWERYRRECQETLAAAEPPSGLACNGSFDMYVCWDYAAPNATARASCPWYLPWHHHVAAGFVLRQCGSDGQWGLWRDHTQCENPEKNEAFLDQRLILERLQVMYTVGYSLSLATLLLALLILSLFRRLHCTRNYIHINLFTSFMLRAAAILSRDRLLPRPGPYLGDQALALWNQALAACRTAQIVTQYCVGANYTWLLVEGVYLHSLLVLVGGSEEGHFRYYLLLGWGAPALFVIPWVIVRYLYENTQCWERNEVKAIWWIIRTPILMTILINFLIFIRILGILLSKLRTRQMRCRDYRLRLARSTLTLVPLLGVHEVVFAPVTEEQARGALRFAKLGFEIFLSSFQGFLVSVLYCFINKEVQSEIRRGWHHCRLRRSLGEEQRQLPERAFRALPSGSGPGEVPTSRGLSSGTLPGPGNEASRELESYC
Procedure: as §2, §3, §4, §5

[6] = molecular target: T4, human GLP-1R (GLP-1R-Nluc) (Homo sapiens, UniProt P43220); experiment: BRET Gαs recruitment to GLP-1 receptor; format: cell-based; settings: Gαs BRET (NES-Venus-Gαs), Flip-In HEK-293 cells stably expressing GLP-1R-Nluc, 15 min agonist; mean ± S.E.M., 4 independent experiments
T4 construct: expressed in transfected cells; host or cells: Flp-In HEK-293 stably expressing GLP-1R-NLuc (pcDNA5-FRT); NES-Venus-Gαs transient
Procedure: as §3, §5

T1 sequence (P47871 26-477): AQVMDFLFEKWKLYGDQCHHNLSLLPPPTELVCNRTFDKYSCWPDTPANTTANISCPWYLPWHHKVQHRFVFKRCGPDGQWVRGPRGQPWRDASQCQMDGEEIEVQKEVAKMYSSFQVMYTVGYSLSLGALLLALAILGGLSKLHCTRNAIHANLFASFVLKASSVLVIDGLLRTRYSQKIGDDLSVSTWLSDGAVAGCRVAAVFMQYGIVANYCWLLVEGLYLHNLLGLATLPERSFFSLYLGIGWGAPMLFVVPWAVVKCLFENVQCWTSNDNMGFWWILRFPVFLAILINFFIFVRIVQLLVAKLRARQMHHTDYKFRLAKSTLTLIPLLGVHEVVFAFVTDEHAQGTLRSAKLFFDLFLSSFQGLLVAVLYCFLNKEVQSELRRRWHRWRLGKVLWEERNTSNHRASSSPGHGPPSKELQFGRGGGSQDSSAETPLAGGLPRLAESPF
T2 sequence (P43220 24-463): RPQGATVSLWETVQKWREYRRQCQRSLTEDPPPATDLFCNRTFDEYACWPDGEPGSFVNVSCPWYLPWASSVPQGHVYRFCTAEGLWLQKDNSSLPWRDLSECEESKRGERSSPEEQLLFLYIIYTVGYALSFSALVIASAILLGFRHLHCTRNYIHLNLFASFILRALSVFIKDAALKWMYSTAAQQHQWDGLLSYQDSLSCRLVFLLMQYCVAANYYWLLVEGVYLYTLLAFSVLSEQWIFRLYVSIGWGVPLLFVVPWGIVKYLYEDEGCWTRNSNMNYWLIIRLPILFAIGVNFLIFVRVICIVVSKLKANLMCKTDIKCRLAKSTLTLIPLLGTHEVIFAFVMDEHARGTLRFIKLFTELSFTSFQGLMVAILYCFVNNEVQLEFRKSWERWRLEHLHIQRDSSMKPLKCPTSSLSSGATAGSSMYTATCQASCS
T4 sequence (P43220 24-463): as above

Pro3GIP: derivative of GIP with a glutamic acid to proline substitution at position three (YAPGTFISDYSIAMDKIHQQDFVNWLLAQKGKKNDWKHNITQ; Gastric inhibitory polypeptide; UniProt P09681 52-93, looked up, variant E3P)
initially reported activity at GIPR, in words ([1]; initial report, later contradicted, ref [26],[27]): GIPR antagonist
activity at GIPR, in words ([1]; ref [28],[29]): low potency GIPR agonist
protection against diabetes and obesity [2]: protective against diabetes and obesity in rodent models

CC[C@H](C)[C@H](NC(=O)[C@H](CO)NC(=O)[C@H](Cc1ccc(O)cc1)NC(=O)[C@H](CC(=O)O)NC(=O)[C@H](CO)NC(=O)[C@@H](NC(=O)[C@H](Cc1ccccc1)NC(=O)[C@@H](NC(=O)CNC(=O)[C@H](CCC(=O)O)NC(=O)C(C)(C)NC(=O)[C@@H](N)Cc1ccc(O)cc1)[C@@H](C)O)[C@@H](C)O)C(=O)N[C@@H](Cc1ccc(O)cc1)C(=O)N[C@@H](CC(C)C)C(=O)N[C@@H](CC(=O)O)C(=O)N[C@@H](CCCCN)C(=O)N[C@@H](CCC(N)=O)C(=O)N[C@@H](C)C(=O)N[C@@H](C)C(=O)NC(C)(C)C(=O)N[C@@H](CCC(=O)O)C(=O)N[C@@H](Cc1ccccc1)C(=O)N[C@H](C(=O)N[C@@H](CC(N)=O)C(=O)N[C@@H](Cc1c[nH]c2ccccc12)C(=O)N[C@@H](CC(C)C)C(=O)N[C@@H](CC(C)C)C(=O)N[C@@H](C)C(=O)NCC(=O)NCC(=O)N1CCC[C@H]1C(=O)N[C@@H](CO)C(=O)N[C@@H](CO)C(=O)NCC(=O)N[C@@H](C)C(=O)N1CCC[C@H]1C(=O)N1CCC[C@H]1C(=O)N1CCC[C@H]1C(=O)N[C@@H](CO)C(=O)N[C@@H](CCCCN)C(N)=O)C(C)C [P18]
EC50 [3]: 12600 nM
Emax (% Glucagon), Glucagon Receptor ([3]; maximum luciferase activity as a percentage of glucagon, HEK-293 cells, 3 h incubation, mean ± S.E.M., at least 3 independent experiments, ND = no detectable activity at 1 µM, P18 p < 0.0001 vs glucagon): 22.6 ± 1.96 d % Glucagon
EC50 [4]: 0.2 nM
Emax (% GLP-1), GLP-1 Receptor ([4]; maximum luciferase activity as a percentage of GLP-1, HEK-293 cells, 3 h incubation, mean ± S.E.M., at least 3 independent experiments, ND = no detectable activity at 1 µM, glucagon p < 0.01 vs GLP-1): 106 ± 10.7 % GLP-1
Emax (% GIP), GIP Receptor ([5]; maximum luciferase activity as a percentage of GIP, HEK-293 cells, 3 h incubation, mean ± S.E.M., at least 3 independent experiments, ND = no detectable activity at 1 µM): 94.4 ± 4.09 % GIP
EC50 ([5]; −logEC50/M, CRE-Luc in transiently transfected HEK-293 cells, 3 h incubation, mean ± S.E.M., at least 3 independent experiments in triplicate, ND = no detectable activity at 1 µM, P18 p < 0.05 vs GIP, read-out: pEC50, GIP Receptor (converted)): 15.8 nM
EC50 [6]: 39.8 nM

CC[C@H](C)[C@H](NC(=O)[C@H](Cc1ccccc1)NC(=O)[C@H](CCC(=O)O)NC(=O)[C@H](CCCCN)NC(=O)[C@H](C)NC(=O)[C@H](C)NC(=O)[C@H](CCC(N)=O)NC(=O)CNC(=O)[C@H](CCC(=O)O)NC(=O)[C@H](CC(C)C)NC(=O)[C@H](Cc1ccc(O)cc1)NC(=O)[C@H](CO)NC(=O)[C@H](CO)NC(=O)[C@@H](NC(=O)[C@H](CC(=O)O)NC(=O)[C@H](CO)NC(=O)[C@@H](NC(=O)[C@H](Cc1ccccc1)NC(=O)[C@@H](NC(=O)CNC(=O)[C@H](CCC(=O)O)NC(=O)[C@H](C)NC(=O)[C@@H](N)Cc1c[nH]cn1)[C@@H](C)O)[C@@H](C)O)C(C)C)C(=O)N[C@@H](C)C(=O)N[C@@H](Cc1c[nH]c2ccccc12)C(=O)N[C@@H](CC(C)C)C(=O)N[C@H](C(=O)N[C@@H](CCCCN)C(=O)NCC(=O)N[C@@H](CCCNC(=N)N)C(=O)NCC(=O)O)C(C)C [GLP-1, Glucagon-like peptide-1]
activity at glucagon receptor, in words ([3]; CRE-Luc, HEK-293 cells, concentrations up to 1 µM): could not be detected
activity at GIP receptor, in words ([5]; CRE-Luc, HEK-293 cells): Neither glucagon nor GLP-1 displayed any detectable activity

From publication PMC6678630 (International Journal of Molecular Sciences, 2019)
